# In the METLIN SMRT retention time set (Domingo-Almenara et al. 2019):
# Assay: gradient 5% acetonitrile 3 min, to 50% in 2 min, to 85% in 15 min, held 3 min, 100 µL/min
# Conditions: column: Zorbax Extend-C18 2.1 x 50 mm; eluents: water / acetonitrile, 0.1% formic acid
# Procedure, shortened: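 Over 3 months, pure standards in mixtures of ~100 molecules were run by HPLC coupled to a quadrupole time-of-flight mass spectrometer in positive and negative ionization mode. The column was a Zorbax Extend-C18 (2.1 × 50 mm, 1.8 μm) at 100 μL/min, eluted with water and acetonitrile each holding 0.1% formic acid, with 40 μL dead and 900 μL dwell volumes. Retention time was determined from adduct peaks chosen by software and checked manually.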
row,Compound,RP-LC retention time [s]
1,Cc1ccccc1-c1nnc(CSc2nnc(NC(=O)c3cccc(Cl)c3)s2)o1,1040
2,Cc1ccc(Nc2c(-c3ccc(O)cc3)nc3ncccn23)c(C)c1,719
3,COCC(=O)NC1CCC12CCN(C(=O)NC(C)C)CC2 (centres undefined),630
4,COc1ccc(-c2cn3c(CC(=O)Nc4ccc(Br)c(C)c4)csc3n2)cc1,914
5,O=C(Cn1c(=O)n(-c2ccc(F)cc2)c2ncccc21)NCCCN1CCOCC1,804
6,CCn1ccc(C(=O)N2CCC(n3c(C)cnc3C3CCC3)C2)n1 (centres undefined),576
7,CCN1C(=O)CCC2(C(=O)Nc3ccc(C)cc3)CCCC=C12 (centres undefined),781
8,O=C(CN1CCC(c2nc(-c3cccs3)no2)CC1)NCc1ccc2c(c1)OCO2,672
9,COc1ccc(CN2CCC(C3CCNC3)CC2)c(Cl)c1OC (centres undefined),556
10,O=C(NCc1ccc(F)cc1)C1CCCN(c2ccc(-c3ccco3)nn2)C1 (centres undefined),622
11,CCCCOC(=O)Cn1c(=O)c2c(nc3n2CCCCN3c2ccc(OCC)cc2)n(C)c1=O,1100
12,Cc1sc(NC(=O)C2CCCCC2)nc1-c1ccc2c(c1)NC(=O)CO2,921
13,CC1CCN(c2cnn(CC(=O)Nc3ccc4c(c3)CCC4)c(=O)c2Cl)CC1,1030
14,CSc1ccc(CNC(=O)CC2CCN(C(=O)c3[nH]c(C)cc3C)CC2)cc1,792
15,CC(=O)N1CCc2cc(-c3ccc(C(=O)NCCCN4CCCCC4)cc3)ccc21,616
16,COc1cccc(CNC(=O)C2CCCN(c3nn4c(=O)c5c(nc4s3)CCCC5)C2)c1 (centres undefined),737
17,COc1cccc(C2CC(c3ccc(F)cc3)=NC3(CCN(C(C)=O)CC3)N2)c1O (centres undefined),656

row,Compound,RP-LC retention time [s]
1,Brc1cccc(-c2nnc(Cc3nc(-c4cccnc4)no3)o2)c1,845
2,Cc1cc(C)cc(NC(=O)Cc2ccc(OC(C)(C)C(=O)O)cc2)c1,969
3,O=C(CSc1nc2ccccc2o1)NCCn1nc(-c2cccs2)ccc1=O,718
4,Cc1cc(=O)n(CC(=O)Nc2ccc(F)c(Cl)c2)c(-c2ccccc2)n1,1090
5,Cc1c(C(=O)NCC2CC2)cnn1-c1cc(-c2nc(C(C)C)no2)ccn1,1020
6,CCOc1ccccc1N1CCN(CC(O)c2ccc3c(c2)OCO3)CC1 (centres undefined),664
7,CCN1CCn2cc(C(=O)NCc3cc(C)ccc3C)nc2C1,592
8,CCc1ccc(C(=O)N2CCCN(C3=NS(=O)(=O)C(c4ccccc4)=C3C)CC2)cc1,894
9,C/C=C(\CCC1NCCc2c1[nH]c1ccccc21)[Si](C)(C)C (centres undefined),815
10,COc1cccc(-c2cc3c(=O)n(Cc4nc(-c5ccc(Br)cc5)no4)ccn3n2)c1,1140
11,Cc1cccc(C(=O)N2CCN(c3c(C)n(C)c(=O)n(C)c3=O)CC2)c1,726
12,COc1ccc2cccc(NC(=O)c3c(F)cccc3Cl)c2n1,1090
13,Cc1ccsc1C(=O)Nc1ccc(-c2nnc3n2CCCC3)cc1,666
14,O=C([C@@H]1C[C@H](Oc2cccnc2)CN1C(=O)c1cnccn1)N1CCCC1,552
15,Cc1cc(C)cc(NS(=O)(=O)c2cc(-c3nc(C(C)C)cs3)cs2)c1,1210
16,O=C(Nc1ccccc1F)C(=O)c1cn(CC(=O)N2CCCC2)c2ccccc12,974
17,C=CCn1c(NCc2ccccc2Cl)nc2ccccc21,699
